In ChEMBL document CHEMBL1145498, “A systematic interaction map of validated kinase inhibitors with Ser/Thr kinases” (Proc Natl Acad Sci U S A, 2007):

Experiments:
[1] = target: Serine/threonine-protein kinase pim-1 (Homo sapiens) (UniProt P11309)
[2] = target: Serine/threonine-protein kinase Chk2 (Homo sapiens, UniProt O96017)
[3] = target: Serine/threonine-protein kinase 38 (Homo sapiens) (UniProt Q15208)
[4] = target: T1, Serine/threonine-protein kinase PLK4 (Homo sapiens) (UniProt O00444)
T1 sequence (whole entry): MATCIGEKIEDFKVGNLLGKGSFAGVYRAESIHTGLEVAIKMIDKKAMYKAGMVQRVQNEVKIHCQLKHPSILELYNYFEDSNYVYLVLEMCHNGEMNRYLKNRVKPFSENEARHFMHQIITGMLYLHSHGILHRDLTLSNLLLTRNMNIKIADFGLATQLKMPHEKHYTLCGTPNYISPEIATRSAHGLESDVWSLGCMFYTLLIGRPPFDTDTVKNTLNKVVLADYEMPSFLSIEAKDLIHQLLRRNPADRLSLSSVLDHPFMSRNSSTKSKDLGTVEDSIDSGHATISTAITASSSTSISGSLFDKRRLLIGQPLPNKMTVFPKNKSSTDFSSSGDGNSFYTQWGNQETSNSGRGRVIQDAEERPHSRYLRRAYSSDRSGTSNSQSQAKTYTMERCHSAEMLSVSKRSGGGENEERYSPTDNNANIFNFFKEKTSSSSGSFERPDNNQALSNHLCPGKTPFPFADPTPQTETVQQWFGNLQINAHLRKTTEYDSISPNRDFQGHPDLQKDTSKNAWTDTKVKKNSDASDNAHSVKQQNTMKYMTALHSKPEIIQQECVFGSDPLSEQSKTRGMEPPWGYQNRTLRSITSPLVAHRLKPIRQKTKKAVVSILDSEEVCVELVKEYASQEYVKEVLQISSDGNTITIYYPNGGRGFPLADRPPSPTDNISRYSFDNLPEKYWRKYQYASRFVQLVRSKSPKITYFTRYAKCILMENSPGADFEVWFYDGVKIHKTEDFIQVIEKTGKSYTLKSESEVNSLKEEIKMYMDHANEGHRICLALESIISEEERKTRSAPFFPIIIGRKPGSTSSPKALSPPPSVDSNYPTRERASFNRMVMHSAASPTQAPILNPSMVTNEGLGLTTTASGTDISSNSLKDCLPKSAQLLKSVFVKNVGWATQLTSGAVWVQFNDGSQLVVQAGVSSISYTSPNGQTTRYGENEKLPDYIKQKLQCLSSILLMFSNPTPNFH

[5] = target: Calcium/calmodulin-dependent protein kinase type 1D (Homo sapiens) (UniProt Q8IU85)
Sequence of Calcium/calmodulin-dependent protein kinase type 1D (Homo sapiens) (Q8IU85 whole entry, looked up): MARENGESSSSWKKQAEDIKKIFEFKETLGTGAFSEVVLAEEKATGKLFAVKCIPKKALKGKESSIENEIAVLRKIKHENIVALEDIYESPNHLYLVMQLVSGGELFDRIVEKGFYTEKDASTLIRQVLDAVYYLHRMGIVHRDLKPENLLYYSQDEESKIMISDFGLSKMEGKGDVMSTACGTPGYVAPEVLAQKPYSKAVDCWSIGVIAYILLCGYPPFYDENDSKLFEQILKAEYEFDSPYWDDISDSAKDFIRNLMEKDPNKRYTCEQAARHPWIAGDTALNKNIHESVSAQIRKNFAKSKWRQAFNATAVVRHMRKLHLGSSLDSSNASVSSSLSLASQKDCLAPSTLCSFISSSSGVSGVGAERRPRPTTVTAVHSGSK

[6] = target: 5'-AMP-activated protein kinase catalytic subunit alpha-2 (Homo sapiens) (UniProt P54646)
Sequence of 5'-AMP-activated protein kinase catalytic subunit alpha-2 (Homo sapiens) (P54646 whole entry, looked up, canonical isoform): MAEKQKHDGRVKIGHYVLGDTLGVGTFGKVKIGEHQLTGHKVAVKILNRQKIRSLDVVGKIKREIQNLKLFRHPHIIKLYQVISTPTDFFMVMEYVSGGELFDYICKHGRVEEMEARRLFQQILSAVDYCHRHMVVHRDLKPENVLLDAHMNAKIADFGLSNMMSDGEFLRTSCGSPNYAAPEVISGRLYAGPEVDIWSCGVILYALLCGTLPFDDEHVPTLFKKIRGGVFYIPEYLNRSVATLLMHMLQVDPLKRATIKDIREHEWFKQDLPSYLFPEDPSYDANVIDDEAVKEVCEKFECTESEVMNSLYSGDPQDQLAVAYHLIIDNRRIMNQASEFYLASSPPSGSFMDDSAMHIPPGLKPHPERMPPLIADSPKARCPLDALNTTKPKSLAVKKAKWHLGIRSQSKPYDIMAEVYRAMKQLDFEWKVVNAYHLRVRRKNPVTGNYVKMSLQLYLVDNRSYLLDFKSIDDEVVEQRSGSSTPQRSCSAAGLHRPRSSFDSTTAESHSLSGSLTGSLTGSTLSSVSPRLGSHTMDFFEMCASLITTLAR

[7] = target: Casein kinase I isoform gamma-2 (Homo sapiens) (UniProt P78368)
Sequence of Casein kinase I isoform gamma-2 (Homo sapiens) (P78368 whole entry, looked up, canonical isoform): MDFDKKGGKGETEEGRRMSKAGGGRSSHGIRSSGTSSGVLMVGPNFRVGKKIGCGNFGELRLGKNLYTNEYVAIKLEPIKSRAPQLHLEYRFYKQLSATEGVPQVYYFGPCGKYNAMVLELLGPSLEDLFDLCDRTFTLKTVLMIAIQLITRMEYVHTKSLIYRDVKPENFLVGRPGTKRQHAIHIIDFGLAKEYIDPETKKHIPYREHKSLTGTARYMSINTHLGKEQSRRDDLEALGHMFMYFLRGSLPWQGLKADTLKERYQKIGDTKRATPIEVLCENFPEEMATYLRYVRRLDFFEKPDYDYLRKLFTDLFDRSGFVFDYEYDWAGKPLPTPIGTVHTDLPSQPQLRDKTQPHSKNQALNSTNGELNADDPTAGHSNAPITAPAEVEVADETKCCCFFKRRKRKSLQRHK

[8] = target: Mitogen-activated protein kinase 3 (Homo sapiens, UniProt P27361)
Sequence of Mitogen-activated protein kinase 3 (P27361 whole entry): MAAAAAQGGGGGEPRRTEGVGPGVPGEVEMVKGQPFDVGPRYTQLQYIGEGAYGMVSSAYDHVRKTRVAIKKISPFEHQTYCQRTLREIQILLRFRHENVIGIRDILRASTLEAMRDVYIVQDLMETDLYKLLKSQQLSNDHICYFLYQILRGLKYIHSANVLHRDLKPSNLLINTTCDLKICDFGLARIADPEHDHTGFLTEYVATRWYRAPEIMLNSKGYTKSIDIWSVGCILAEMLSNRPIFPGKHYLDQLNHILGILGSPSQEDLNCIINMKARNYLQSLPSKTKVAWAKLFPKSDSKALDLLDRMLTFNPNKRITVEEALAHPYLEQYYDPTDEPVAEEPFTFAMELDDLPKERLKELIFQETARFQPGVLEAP

[9] = target: Dual specificity protein kinase CLK3 (Homo sapiens) (UniProt P49761)
Sequence of Dual specificity protein kinase CLK3 (Homo sapiens) (P49761 whole entry, looked up): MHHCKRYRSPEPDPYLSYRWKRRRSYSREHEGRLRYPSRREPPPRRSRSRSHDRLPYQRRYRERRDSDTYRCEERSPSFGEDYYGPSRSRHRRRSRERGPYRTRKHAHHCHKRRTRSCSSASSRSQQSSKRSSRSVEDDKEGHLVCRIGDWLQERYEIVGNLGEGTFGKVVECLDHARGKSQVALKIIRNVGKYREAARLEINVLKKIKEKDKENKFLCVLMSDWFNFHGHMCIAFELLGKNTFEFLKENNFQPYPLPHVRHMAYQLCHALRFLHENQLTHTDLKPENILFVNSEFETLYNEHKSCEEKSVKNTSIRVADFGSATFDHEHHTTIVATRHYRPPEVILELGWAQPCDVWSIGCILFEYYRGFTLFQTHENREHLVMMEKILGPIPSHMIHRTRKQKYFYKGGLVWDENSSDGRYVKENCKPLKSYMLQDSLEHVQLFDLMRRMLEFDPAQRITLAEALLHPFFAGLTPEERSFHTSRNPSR

[10] = target: Cyclin-dependent kinase 2 (Homo sapiens, UniProt P24941)

Sequence of Serine/threonine-protein kinase pim-1 (Homo sapiens) (P11309 whole entry, looked up): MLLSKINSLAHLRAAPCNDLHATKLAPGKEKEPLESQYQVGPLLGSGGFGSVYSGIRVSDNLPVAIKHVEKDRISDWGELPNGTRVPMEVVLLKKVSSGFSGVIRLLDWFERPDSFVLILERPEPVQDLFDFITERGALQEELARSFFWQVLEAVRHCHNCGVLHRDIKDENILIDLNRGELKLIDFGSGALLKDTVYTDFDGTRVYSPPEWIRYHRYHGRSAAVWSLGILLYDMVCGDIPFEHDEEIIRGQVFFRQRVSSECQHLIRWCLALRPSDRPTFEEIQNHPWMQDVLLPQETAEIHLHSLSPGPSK
Sequence of Serine/threonine-protein kinase 38 (Homo sapiens) (Q15208 2-465 limits assumed): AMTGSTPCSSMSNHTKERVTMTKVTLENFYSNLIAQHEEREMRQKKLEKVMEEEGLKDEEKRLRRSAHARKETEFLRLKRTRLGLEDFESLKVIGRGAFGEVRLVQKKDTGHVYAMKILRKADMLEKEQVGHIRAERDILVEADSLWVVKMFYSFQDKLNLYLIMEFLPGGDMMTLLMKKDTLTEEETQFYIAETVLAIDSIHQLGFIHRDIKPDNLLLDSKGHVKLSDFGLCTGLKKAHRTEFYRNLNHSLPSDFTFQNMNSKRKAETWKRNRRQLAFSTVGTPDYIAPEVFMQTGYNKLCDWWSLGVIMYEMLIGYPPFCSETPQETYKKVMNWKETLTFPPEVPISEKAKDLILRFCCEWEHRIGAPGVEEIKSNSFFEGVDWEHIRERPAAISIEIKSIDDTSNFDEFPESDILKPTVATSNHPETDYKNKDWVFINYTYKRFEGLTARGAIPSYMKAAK
Sequence of Serine/threonine-protein kinase Chk2 (O96017 whole entry): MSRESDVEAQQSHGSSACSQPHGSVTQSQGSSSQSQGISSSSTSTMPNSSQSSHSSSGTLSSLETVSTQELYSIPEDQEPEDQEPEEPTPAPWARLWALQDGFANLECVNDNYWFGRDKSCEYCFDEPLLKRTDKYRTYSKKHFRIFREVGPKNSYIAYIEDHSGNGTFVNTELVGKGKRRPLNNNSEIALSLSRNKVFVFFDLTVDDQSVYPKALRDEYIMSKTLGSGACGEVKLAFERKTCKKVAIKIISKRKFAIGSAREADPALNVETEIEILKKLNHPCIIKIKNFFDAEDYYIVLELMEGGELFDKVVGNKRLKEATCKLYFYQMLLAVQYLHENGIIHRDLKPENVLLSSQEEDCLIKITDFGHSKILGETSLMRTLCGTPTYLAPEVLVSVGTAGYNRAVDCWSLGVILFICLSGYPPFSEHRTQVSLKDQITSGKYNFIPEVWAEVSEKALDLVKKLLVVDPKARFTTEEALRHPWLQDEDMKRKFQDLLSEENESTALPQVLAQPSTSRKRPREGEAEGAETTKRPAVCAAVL

Structure (SMILES) | ΔTm [1] | ΔTm [2] | ΔTm [3] | ΔTm [4] | ΔTm [5] | ΔTm [6] | ΔTm [7] | ΔTm [8] | ΔTm [9] | ΔTm [10]
O=c1c(O)c(-c2ccc(O)c(O)c2)oc2cc(O)cc(O)c12 [QUERCETIN] | 8.1 °C | 4.8 °C | 3.2 °C | 7.4 °C | 2.9 °C | 2.3 °C | 2.4 °C | 1.9 °C | 5.4 °C | 5.3 °C
COc1cc(C[C@H]2C(=O)OC[C@@H]2Cc2ccc(OC)c(OC)c2)ccc1O [ARCTIGENIN] | -0.3 °C | -0.3 °C | 0.5 °C | 0 °C | 0.1 °C | -0.9 °C | 0.1 °C | -0.4 °C | 0 °C | 0.6 °C
O=C1NC(=O)c2c1c1c3ccccc3n3c1c1c2c2ccccc2n1C1CCC3O1 | 6.2 °C | 3.9 °C | 0 °C | 0 °C | 1.6 °C | 3.9 °C | 0.7 °C | -0.2 °C | 0.5 °C | 0.2 °C
CN(C)c1ncnc2nc[nH]c12 [DIMETHYLADENINE] | 0 °C | 0.5 °C | 0.3 °C | 1.3 °C | 0 °C | -0.6 °C | 0.5 °C | 0.4 °C | 0.4 °C | 0.3 °C
CSc1nc(-c2ccc(F)cc2)c(-c2ccnc(NC(C)c3ccccc3)c2)[nH]1 (racemic) | -0.4 °C | 0.7 °C | 0.3 °C | 0.3 °C | 0.5 °C | -0.4 °C | 3.4 °C | 0 °C | -0.2 °C | -0.5 °C
O=C1Nc2ccccc2/C1=C/c1cnc[nH]1 | 3 °C | 3 °C | 2.9 °C | 5.8 °C | 0.7 °C | 3.3 °C | 1.6 °C | 2.1 °C | 1 °C | 6.6 °C
COc1cc2ncnc(Nc3ccc(NC(=O)c4ccccc4)cc3)c2cc1OC [ANILINOQUINAZOLINE1] | 0.7 °C | 7.3 °C | 0.9 °C | 0.5 °C | 0.7 °C | 0.8 °C | 0.5 °C | 0.4 °C | 0.4 °C | -0.5 °C
CCCNC(=O)Nc1ccc(Oc2ncnc3cc(OC)c(OC)cc23)cc1Cl [KRN-633] | 0.5 °C | 2.4 °C | 1.6 °C | 1 °C | 0.5 °C | 2.1 °C | 0.5 °C | 0.5 °C | 0.1 °C | -0.4 °C
O=C(Nc1cccc(Nc2cc(Nc3cccc(C(F)(F)F)c3)ncn2)c1)C1CC1 | 1 °C | 2.4 °C | 1.5 °C | 2 °C | 2.6 °C | -3.7 °C | 2.3 °C | 1.5 °C | 1.5 °C | -1.5 °C
Cc1cc(Nc2nc(-c3ccccc3)nc3ccccc23)n[nH]1 | 1.7 °C | 5.7 °C | 4 °C | 1.3 °C | 3.5 °C | 5.8 °C | 3.3 °C | 0.1 °C | 3.5 °C | 3 °C
O=c1c2ccccc2[nH]c(=S)n1CCN1CCC(=C(c2ccc(F)cc2)c2ccc(F)cc2)CC1 [DIACYLGLYCEROL KINASE INHIBITOR II] | 0 °C | 1.6 °C | 0.2 °C | 0.8 °C | 0.8 °C | -3.3 °C | 0.5 °C | 0.2 °C | 0.2 °C | 0.9 °C
Cc1nc2sccn2c(=O)c1CCN1CCC(=C(c2ccccc2)c2ccc(F)cc2)CC1 | 6.6 °C | 0.4 °C | 0.6 °C | 2.8 °C | 0.5 °C | -0.1 °C | 0.3 °C | 0 °C | 3 °C | 1.2 °C
COc1cc2c(cc1OC)-c1n[nH]c(Nc3cccc(F)c3)c1C2 | 0.5 °C | -0.1 °C | 2.4 °C | 1.5 °C | 0.3 °C | -0.3 °C | 0.3 °C | 0.6 °C | 0.4 °C | 0 °C
COc1cc(O)c2c(c1)oc(=O)c1c3cc(O)c(O)cc3oc21 [WEDELOLACTONE] | 3.4 °C | 1.8 °C | 0.5 °C | 2.9 °C | 1.1 °C | -0.8 °C | 2.7 °C | 0.8 °C | 2.1 °C | -4.5 °C
O=C1NC(=O)C(c2cn(CCCn3ccnc3)c3ccccc23)=C1Nc1ccccc1 | 3.1 °C | 1.5 °C | 0.7 °C | 0.8 °C | 0.2 °C | 0.4 °C | 1 °C | -0.1 °C | 3 °C | 0.4 °C
NC(=O)c1ccc2[nH]c(-c3ccc(Oc4ccc(Cl)cc4)cc3)nc2c1 | 0.4 °C | – | 1.7 °C | 1.4 °C | 1.1 °C | -0.9 °C | 1.6 °C | -0.2 °C | 0.5 °C | -0.7 °C
CCCCc1c(-c2ccc(O)cc2)[nH]c2nccnc12 [ALOISINE A] | 1.7 °C | 5.7 °C | 4 °C | 3.4 °C | 1.2 °C | 2.2 °C | 2.2 °C | 0.5 °C | 1.5 °C | 4.7 °C
CN(C)CCCn1cc(C2=C(c3c[nH]c4ccccc34)C(=O)NC2=O)c2ccccc21 [GF-109203] | – | 7.1 °C | 0.3 °C | 3 °C | 1.1 °C | 2.6 °C | 0.5 °C | 0.6 °C | 2.7 °C | 1.7 °C
Cc1ccc(NC(=O)c2cccc(N(C)C)c2)cc1NC(=O)c1ccc(O)cc1 | -0.3 °C | 0.9 °C | 0 °C | 0.8 °C | 0.3 °C | -0.1 °C | 0.2 °C | 0.2 °C | 0 °C | 0.3 °C
CCOc1ccc(/C=C2/SC(=O)N(CCN)C2=O)cc1 [HIAZOLIDINEDIONE1] | -0.4 °C | 0.7 °C | 0.5 °C | 0.3 °C | -0.2 °C | 0.1 °C | 0.6 °C | -0.1 °C | 0.1 °C | -0.1 °C
CCN1/C(=C/C(C)=O)Sc2ccc(OC)cc21 | 6.3 °C | 0.1 °C | 0.5 °C | -0.2 °C | 0 °C | -0.1 °C | – | -0.4 °C | – | 0.1 °C
Brc1c(Br)c(Br)c2[nH]nnc2c1Br [TETRABROMOBENZOTRIAZOLE] | 3.7 °C | 0.5 °C | 1.3 °C | 4.4 °C | -1.6 °C | 0.4 °C | 0.3 °C | 0 °C | 2 °C | –
CN(C)C[C@@H]1CCn2cc(c3ccccc32)C2=C(C(=O)NC2=O)c2cn(c3ccccc23)CCO1 [RUBOXISTAURIN] | – | 3.5 °C | 0 °C | 1.5 °C | – | 1.3 °C | 0.9 °C | 0.5 °C | 0.3 °C | 0.9 °C
